{"source": "patent US5795899A", "about": "“Soluble salts of 4-amino-2-(4,4-dimethylimidazolidin-2-on-1-yl) pyrimidine-5-carboxylic acid N-methyl-N-(3-trifluoromethylphenyl)-amide, a process for the preparation thereof, the use thereof as pharmaceuticals and starting materials” (Hoechst Aktiengesellschaft, priority 1992, dated 1998)", "key": {"[1]": {"system": "LDL receptor mRNA", "test": "LDL receptor mRNA expression in vivo in rat livers (Northern blot)", "conditions": "6 hours after single oral dose of 30 mg/kg, FIG. 1", "procedure": "Liver tissue was removed at the stated time after a single oral dose of 30 mg/kg of the hydrochloride of compound I and was shock-frozen in liquid nitrogen.\nThe Northern blot technique was used to determine the relative LDL receptor MRNA levels. The LDL receptor MRNA level is increased about 2.5-fold after six hours.\nThe mRNA was prepared by the method described by Chomczynski, P. and Sacchi, N. in Anal. Biochem. 162, 156 (1987). In the case of organs (such as, for example, liver), the deep-frozen tissue was previously homogenized in a mortar on dry ice, and the mRNA was further concentrated by means of oligo dT by standard methods (compare Sambrook, J., Fritsch, E. F. and Maniatis, T., Molecular Cloning, second edition, Cold Spring Harbor (1989); this collection of methods also includes descriptions of all the other relevant standard processes of molecular biology used here). […] The filters were subsequently exposed on Cronex 4 films (Dupont) in the presence of an intensifying screen at -70° C. overnight or for up to 14 days, and the hybridization signals were quantified from the intensity of blackening of the film using a commercially available laser densitometer. Subsequently, the quotient was determined from the intensity of the LDL receptor band and of the actin band as internal standard to correct for variations in yield. […]"}, "[2]": {"system": "LDL receptor", "test": "Uptake of 125I-labeled homologous LDL / functional LDL receptor levels on HepG2 cells", "assay_type": "cell-based, human", "conditions": "FIG. 3", "procedure": "In this test, homologous LDL which had been purified by standard processes was labeled with ^125 I by the iodine monochloride method. Used in this case was the method of Bilheimer which is disclosed in the literature and is a modification of the iodination technique originally developed by McFarlaine (compare Bilheimer, D. W., Eisenberg, S., and Levy, R. L., Biochim. Biophys. Acta, 260, 212 (1972)).\nTo determine the ^125 I-LDL incorporation, HepG2 cells were preincubated with and without hydrochloride of the compound I for 36 hours and subsequently incubated with iodine-labeled LDL at 37° C. in an incubator for 3 hours.\nSubsequently, the cells were washed in the presence of 2% bovine serum albumin, the cells were lyzed with 1 ml of 0.1N NaOH, and the incorporated radioactivity was measured. The specific radioactivity uptake (total radioactivity uptake less the unspecific radioactivity uptake) per mg of protein was then calculated, as generally customary, via a protein determination by the Lowry method, and the radioactivity taken up by the control […] was set equal to 100%."}, "[3]": {"target": "T1, HMG-CoA reductase (Rattus norvegicus, UniProt P51639)", "T1 construct": "partially purified HMG-COA reductase from rat liver; from tissue; host or cells: rat liver (partially purified enzyme)", "T1 sequence (P51639 1-887)": "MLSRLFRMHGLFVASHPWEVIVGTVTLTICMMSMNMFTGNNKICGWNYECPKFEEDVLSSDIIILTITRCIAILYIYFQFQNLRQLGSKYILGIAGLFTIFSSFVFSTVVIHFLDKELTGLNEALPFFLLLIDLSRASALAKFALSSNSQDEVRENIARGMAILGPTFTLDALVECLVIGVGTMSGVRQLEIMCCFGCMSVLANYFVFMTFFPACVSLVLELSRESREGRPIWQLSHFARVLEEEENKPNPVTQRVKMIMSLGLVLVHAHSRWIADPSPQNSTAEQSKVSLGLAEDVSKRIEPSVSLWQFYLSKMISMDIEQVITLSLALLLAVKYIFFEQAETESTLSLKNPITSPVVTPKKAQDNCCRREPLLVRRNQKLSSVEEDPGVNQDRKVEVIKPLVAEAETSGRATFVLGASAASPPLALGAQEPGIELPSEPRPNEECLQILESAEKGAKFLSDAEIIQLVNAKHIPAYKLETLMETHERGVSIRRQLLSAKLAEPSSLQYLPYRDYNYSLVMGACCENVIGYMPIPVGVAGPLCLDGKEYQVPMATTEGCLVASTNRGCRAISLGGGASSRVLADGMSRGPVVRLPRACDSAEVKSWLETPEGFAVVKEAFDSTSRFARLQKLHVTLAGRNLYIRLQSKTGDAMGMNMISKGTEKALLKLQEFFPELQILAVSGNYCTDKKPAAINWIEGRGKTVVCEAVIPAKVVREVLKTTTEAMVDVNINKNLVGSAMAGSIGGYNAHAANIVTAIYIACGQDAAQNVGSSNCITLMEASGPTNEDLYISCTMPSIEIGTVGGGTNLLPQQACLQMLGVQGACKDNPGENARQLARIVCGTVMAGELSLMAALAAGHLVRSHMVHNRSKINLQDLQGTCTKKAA", "test": "HMG-CoA reductase determination in vitro on partially purified HMG-CoA reductase from rat liver", "assay_type": "biochemical", "conditions": "10^-5 M; variation 10%"}, "[4]": {"system": "carbohydrate-induced hypertriglyceridemia", "test": "Inhibition of carbohydrate-induced hypertriglyceridemia", "assay_type": "in vivo, male Sprague-Dawley rats", "conditions": "1 mg/kg/day", "procedure": "Groups of in each case 10 male Sprague-Dawley rats (supplied by the breeder Mollegard with a weight of 250-280 g) received on each of 4 consecutive days one administration of the compound dissolved in PEG 400 by gavage. In addition, after the 3rd administration and 8 and 24 hours later they received 2.5 g of fructose/kg, likewise by gavage. Moreover, after the 3rd administration of product, 50% strength fructose solution was offered to them as drinking water ad libitum, and the food was withdrawn. Retroorbital removal of blood, from which the serum was obtained for the triglyceride determination and VLDL preparation in the ultracentrifuge (flotation at d=1.006), took place 3 hours after the last product/fructose administration. The food received by the animals from 1 week before the 1st administration and up to the 3rd administration was a diet with 40% casein in the feed meal.\nThe animals develop, as a result of this treatment, a hypertriglyceridemia which approximately corresponds to Fredrickson phenotype IV in humans. The serum triglycerides of the normal animals increased from 0.54 to 1.1 mmol/l, and the VLDL triglycerides from 0.67 to 1.81."}}}
{"compound": "CN(C(=O)c1cnc(N2CC(C)(C)NC2=O)nc1N)c1cccc(C(F)(F)F)c1.Cl", "note": "[Compound I as hydrochloride, 4-amino-2-(4,4-dimethyl-2-oxo-1-imidazolidinyl)pyrimidine-5-carboxylic acid N-methyl-N-(3-trifluoromethylphenyl)amide hydrochloride]", "values": [{"measurement": "Increase in LDL receptor mRNA level in rat liver", "setting": "[1]", "value": "about 2.5 -fold"}, {"measurement": "Functional LDL receptor levels on HepG2 cells", "setting": "[2]", "value": "corresponding increase"}, {"measurement": "Increase in uptake of 125I-labeled homologous LDL", "setting": "[2]; HepG2, preincubation 36 hours, then 125I-LDL at 37° C. 3 hours", "value": "increased by up to two and a half times"}, {"measurement": "Influence on HMG-CoA reductase enzyme activity compared with control incubations", "setting": "[3]", "value": "does not influence"}, {"measurement": "Inhibition of the increase in the VLDL triglycerides (in words)", "setting": "[4]", "value": "almost one half"}]}
